In one experiment the test system is EGFR M+ NSCLC patients. The settings on record: first line (1L), NSCLC harboring del19 and L858R mutations; cited from earlier work.
Experiment [1] has as its target intracellular phosphorylation of EGFR (Tyr1068) in PC-9 cells (Homo sapiens, UniProt P00533, DEL746-750). Briefly: PC-9 pEGFR AlphaLISA assay. The settings on record: 4 hours incubation, read-out: Phos EGFR PC9 IC50. Format: cell-based. The method in brief: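 PC-9 cells (EGFR del746-750) in phenol-free DMEM/10% FBS, adhered overnight, then exposed to 10-point 4-fold compound dilutions for 4 h at 37 °C. Lysates assayed for pEGFR Tyr1068 by AlphaLISA SureFire Ultra; IC50 from percent pEGFR inhibition vs log concentration.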
Background: In Alpha technology, singlet oxygen from a donor bead excites a nearby acceptor bead.

For a further experiment, the target named is T1, EGFR (d746-750) (Homo sapiens, UniProt P00533, DEL746-750).
T1 construct: purchased SignalChem E10-122JG
T1 sequence (P00533 with tags, fused parts or gaps DEL746-750 limits assumed): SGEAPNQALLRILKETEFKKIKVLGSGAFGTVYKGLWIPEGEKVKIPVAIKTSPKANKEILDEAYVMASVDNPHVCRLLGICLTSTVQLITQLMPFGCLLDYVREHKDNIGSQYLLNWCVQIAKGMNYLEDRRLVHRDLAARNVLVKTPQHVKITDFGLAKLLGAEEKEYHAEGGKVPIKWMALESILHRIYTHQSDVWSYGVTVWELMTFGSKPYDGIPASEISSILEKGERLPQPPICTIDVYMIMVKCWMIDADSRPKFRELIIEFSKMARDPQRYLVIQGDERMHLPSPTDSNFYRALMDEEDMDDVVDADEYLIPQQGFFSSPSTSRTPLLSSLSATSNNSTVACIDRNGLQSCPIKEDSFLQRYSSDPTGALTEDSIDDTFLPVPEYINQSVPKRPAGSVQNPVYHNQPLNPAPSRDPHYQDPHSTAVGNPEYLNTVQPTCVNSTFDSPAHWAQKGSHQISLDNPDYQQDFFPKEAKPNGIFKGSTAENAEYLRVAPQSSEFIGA
Kind of experiment: Biochemical EGFR inhibition assay (Caliper mobility shift), EGFR (d746-750). As to conditions: biochemical Caliper mobility shift assay, EGFR Exon 19-del enzyme; read-out: Enz EGFR Exon 19-del IC50. The method in brief: (§1)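 Kinase activity measured as phosphorylation of 2.5 µM 5-FAM-labelled peptide substrate in 100 mM HEPES pH 7.5, 10 mM MgCl2, 0.015% Brij-35, 1 mM DTT, 1.0% DMSO, at 1.0 mM ATP or ATP Km. Run at 25 °C to 10–20% conversion, stopped with EDTA; product resolved by mobility shift, apparent IC50 from percent activity vs log concentration.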

For a further experiment, the target named is T2, EGFR L858R (Homo sapiens, UniProt P00533, L858R).
T2 construct: purchased SignalChem E10-122BG
T2 sequence (P00533 25-1210 L858R): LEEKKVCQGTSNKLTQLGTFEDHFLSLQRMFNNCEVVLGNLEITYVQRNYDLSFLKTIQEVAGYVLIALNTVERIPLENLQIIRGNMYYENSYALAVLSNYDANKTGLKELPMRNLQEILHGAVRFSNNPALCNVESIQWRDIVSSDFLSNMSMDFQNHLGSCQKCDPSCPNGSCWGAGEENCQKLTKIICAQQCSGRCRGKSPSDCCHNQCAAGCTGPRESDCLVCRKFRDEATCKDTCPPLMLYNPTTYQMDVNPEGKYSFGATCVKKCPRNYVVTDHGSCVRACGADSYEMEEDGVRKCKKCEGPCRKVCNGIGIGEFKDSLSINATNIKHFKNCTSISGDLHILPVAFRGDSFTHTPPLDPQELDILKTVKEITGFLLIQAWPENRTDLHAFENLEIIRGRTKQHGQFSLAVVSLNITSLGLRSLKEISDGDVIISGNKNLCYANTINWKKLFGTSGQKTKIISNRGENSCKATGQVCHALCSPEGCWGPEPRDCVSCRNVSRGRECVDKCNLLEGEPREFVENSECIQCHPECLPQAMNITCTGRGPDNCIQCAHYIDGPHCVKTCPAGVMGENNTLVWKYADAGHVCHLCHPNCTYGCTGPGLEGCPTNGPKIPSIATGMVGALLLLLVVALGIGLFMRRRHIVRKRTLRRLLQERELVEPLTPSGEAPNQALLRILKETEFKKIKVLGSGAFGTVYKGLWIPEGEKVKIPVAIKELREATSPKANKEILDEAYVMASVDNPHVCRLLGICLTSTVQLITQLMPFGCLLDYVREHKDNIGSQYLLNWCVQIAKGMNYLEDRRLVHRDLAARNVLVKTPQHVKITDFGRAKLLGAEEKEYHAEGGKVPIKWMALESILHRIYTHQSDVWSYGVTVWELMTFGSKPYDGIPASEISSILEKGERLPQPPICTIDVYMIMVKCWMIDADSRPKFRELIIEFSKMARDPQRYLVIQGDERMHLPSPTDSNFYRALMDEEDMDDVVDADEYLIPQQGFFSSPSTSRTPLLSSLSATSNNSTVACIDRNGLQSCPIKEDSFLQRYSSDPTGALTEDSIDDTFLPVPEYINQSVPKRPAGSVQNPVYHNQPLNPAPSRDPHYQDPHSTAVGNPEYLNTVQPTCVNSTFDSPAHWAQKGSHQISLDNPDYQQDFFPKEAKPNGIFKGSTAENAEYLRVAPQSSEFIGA
Kind of experiment: Biochemical EGFR inhibition assay (Caliper mobility shift), EGFR L858R. The settings on record: biochemical Caliper mobility shift assay, EGFR L858R enzyme; read-out: Enz EGFR L858R IC50. An outline of the steps: as §1

pIC50: −log10 of the molar value.

intracellular phosphorylation of EGFR (Tyr1068) in PC-9 cells, sequence (P00533 with tags, fused parts or gaps DEL746-750): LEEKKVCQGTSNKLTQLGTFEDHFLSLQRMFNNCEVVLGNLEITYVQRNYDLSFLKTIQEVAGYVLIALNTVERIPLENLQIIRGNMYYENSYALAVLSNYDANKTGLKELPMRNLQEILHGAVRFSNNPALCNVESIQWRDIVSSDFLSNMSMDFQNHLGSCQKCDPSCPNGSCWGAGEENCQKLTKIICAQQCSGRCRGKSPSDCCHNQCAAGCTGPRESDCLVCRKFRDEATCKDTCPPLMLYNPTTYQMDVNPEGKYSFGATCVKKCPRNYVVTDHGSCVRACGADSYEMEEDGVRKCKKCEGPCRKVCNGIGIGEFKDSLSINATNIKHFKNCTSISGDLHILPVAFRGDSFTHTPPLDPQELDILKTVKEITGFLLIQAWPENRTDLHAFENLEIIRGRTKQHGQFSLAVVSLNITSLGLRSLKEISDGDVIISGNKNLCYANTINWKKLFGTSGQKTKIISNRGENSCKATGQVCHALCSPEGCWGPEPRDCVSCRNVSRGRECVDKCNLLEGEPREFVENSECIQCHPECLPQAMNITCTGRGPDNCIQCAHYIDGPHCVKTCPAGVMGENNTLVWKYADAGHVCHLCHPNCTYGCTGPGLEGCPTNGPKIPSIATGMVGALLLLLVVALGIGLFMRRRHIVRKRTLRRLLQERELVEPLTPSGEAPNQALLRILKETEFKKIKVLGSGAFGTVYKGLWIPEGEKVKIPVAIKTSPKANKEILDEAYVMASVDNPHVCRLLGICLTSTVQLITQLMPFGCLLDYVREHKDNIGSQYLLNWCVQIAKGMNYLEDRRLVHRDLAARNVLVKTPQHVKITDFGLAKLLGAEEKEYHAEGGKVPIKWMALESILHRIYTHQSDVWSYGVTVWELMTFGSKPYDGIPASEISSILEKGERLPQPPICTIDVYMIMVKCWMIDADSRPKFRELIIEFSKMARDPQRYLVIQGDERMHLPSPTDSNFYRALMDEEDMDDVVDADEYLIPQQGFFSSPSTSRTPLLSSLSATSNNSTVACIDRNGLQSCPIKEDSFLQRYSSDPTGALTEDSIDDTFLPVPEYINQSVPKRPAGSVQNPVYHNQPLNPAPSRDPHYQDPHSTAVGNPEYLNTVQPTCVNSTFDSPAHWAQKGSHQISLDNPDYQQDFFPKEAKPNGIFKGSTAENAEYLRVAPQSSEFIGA

For the molecule `C=CC(=O)Nc1cc(Nc2nccc(-c3cn(C)c4ccccc34)n2)c(OC)cc1N(C)CCN(C)C` [Osimertinib], the “progression-free survival (PFS)” value in the experiment with EGFR M+ NSCLC patients is reported as 18.9 mo.
As a reminder, the pIC50 is the negative decadic logarithm of the IC50, by convention in mol/L. `C[C@@H]1CN(C)CCN1C(=O)Nc1cc2c(Nc3ccc4ncsc4c3)ncnc2cc1-c1ccn(C)n1` [Example 255, (R)-N-(4-(benzo[d]thiazol-6-ylamino)-7-(1-methyl-1H-pyrazol-3-yl)quinazolin-6-yl)-2,4-dimethylpiperazine-1-carboxamide]: the pIC50 (in experiment [1]; at EGFR (d746-750); at EGFR L858R) was ≥ 8.00 throughout.
As to `C[C@@H](Oc1cc(-c2cnn(C)c2)cc2ncnc(Nc3ccc4ncsc4c3)c12)C1COC1` [Example 133, (R)—N-(7-(1-methyl-1H-pyrazol-4-yl)-5-(1-(oxetan-3-yl)ethoxy)quinazolin-4-yl)benzo[d]thiazol-6-amine], the pIC50 (in experiment [1]; at EGFR (d746-750); on EGFR L858R) was ≥ 8.00 each time.
Turning to `CC(Oc1cc(-c2cn[nH]c2)cc2ncnc(Nc3ccc4ncsc4c3)c12)C1COC1` (single isomer, unassigned) [Example 122], the pIC50 (in experiment [1]; at EGFR (d746-750); on EGFR L858R) was ≥ 8.00 in each case.
In the case of `COc1nn(C)cc1-c1cc(O[C@H]2CN(C)C[C@H]2F)c2c(Nc3ccc4ncsc4c3)ncnc2c1` (single isomer, unassigned) [Example 373], the pIC50 (in experiment [1]; at EGFR (d746-750); at EGFR L858R) was ≥ 8.00 in each case.
Take `CN1CC[C@H](Oc2cc(-c3cn(C)nc3OC(F)F)cc3ncnc(Nc4ccc5ncsc5c4)c23)[C@H](F)C1` [Example 367, N-(7-(3-(difluoromethoxy)-1-methyl-1H-pyrazol-4-yl)-5-(((3R,4S)-3-fluoro-1-methylpiperidin-4-yl)oxy)quinazolin-4-yl)benzo[d]thiazol-6-amine]: the pIC50 in experiment [1] is 7.30 to 8.00; at EGFR (d746-750), ≥ 8.00; on EGFR L858R it was 7.30 to 8.00.
Consider `Cn1cc(-c2cc(O[C@H]3CCCNC3)c3c(Nc4ccc5ncsc5c4)ncnc3c2)cn1` [Example 134, (S)-N-(7-(1-methyl-1H-pyrazol-4-yl)-5-(piperidin-3-yloxy)quinazolin-4-yl)benzo[d]thiazol-6-amine], for which the figures for the pIC50 (in experiment [1]; at EGFR (d746-750); at EGFR L858R) were 7.30 to 8.00, ≥ 8.00 and ≥ 8.00, respectively.
As to `C[C@@H](Oc1cc(-c2cnn(C)c2)cc2ncnc(Nc3ccc4ncsc4c3)c12)C1CC1` [Example 65, (R)-N-(5-(1-cyclopropylethoxy)-7-(1-methyl-1H-pyrazol-4-yl)quinazolin-4-yl)benzo[d]thiazol-6-amine], the pIC50 (in experiment [1]; at EGFR (d746-750); on EGFR L858R) was ≥ 8.00 in each case.
On to `Cn1cc(-c2cc(O[C@@H]3CNC[C@H](F)C3)c3c(Nc4ccc5ncsc5c4)ncnc3c2)cn1` (single isomer, unassigned) [Example 335], for which the pIC50 (in experiment [1]; on EGFR (d746-750); at EGFR L858R) was ≥ 8.00 each time.

Source of the values: patent publication US20260207602A1, “EGFR INHIBITORS” (Blueprint Medicines Corporation, priority 2022, published 2026).
